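These data come from cells grown in 96-well plates and exposed to compound for 48 hours at five concentrations. GI50: concentration for 50% inhibition of growth.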 Calls of active or inactive are those of the source. No stated cut-off is given here; in the data, active = GI50 up to about 1.1 µM and inactive = higher.
Experiments:
Assay in all cases: NCI-60 cell line screen, 48 h
[1] = tested on: 786-0
[2] = tested on: A498
[3] = tested on: A549
[4] = tested on: CCRF-CEM
[5] = tested on: COLO 205
[6] = tested on: HCT-116
[7] = tested on: HOP-62
[8] = tested on: HT-29
[9] = tested on: IGROV-1
[10] = tested on: MDA-N
[11] = tested on: NCI/ADR-RES
[12] = tested on: OVCAR-3
[13] = tested on: OVCAR-8
[14] = tested on: SF-539
[15] = tested on: SK-MEL-28
[16] = tested on: SK-MEL-5
[17] = tested on: SNB-19
[18] = tested on: TK-10
[19] = tested on: U-251
[20] = tested on: UACC-62

Structure (SMILES) | GI50 [1] | GI50 [2] | GI50 [3] | GI50 [4] | GI50 [5] | GI50 [6] | GI50 [7] | GI50 [8] | GI50 [9] | GI50 [10] | GI50 [11] | GI50 [12] | GI50 [13] | GI50 [14] | GI50 [15] | GI50 [16] | GI50 [17] | GI50 [18] | GI50 [19] | GI50 [20]
Cn1cc(S(=O)(=O)NC(=O)Nc2ccc(Cl)cc2)c2ccccc21 | > 100 µM (inactive) | > 100 µM (inactive) | 63.4 µM (inactive) | > 100 µM (inactive) | 30.3 µM (inactive) | 32.4 µM (inactive) | 15.1 µM (inactive) | > 100 µM (inactive) | 13.3 µM (inactive) | 27.4 µM (inactive) | 38.6 µM (inactive) | > 100 µM (inactive) | 82.2 µM (inactive) | 11.1 µM (inactive) | > 100 µM (inactive) | 73.5 µM (inactive) | > 100 µM (inactive) | 21.4 µM (inactive) | 41.9 µM (inactive) | 12.4 µM (inactive)
COC(=O)C(Cc1c[nH]c2ccccc12)NP(=O)(O)OCC1OC(n2cc(F)c(=O)[nH]c2=O)CC1O (stereo not given) | 28.2 µM (inactive) | 0.964 µM (active) | 10.4 µM (inactive) | 3.59 µM (inactive) | > 100 µM (inactive) | 14.5 µM (inactive) | 25.9 µM (inactive) | > 100 µM (inactive) | > 71.1 µM (inactive) | > 100 µM (inactive) | 37.2 µM (inactive) | > 100 µM (inactive) | 65.9 µM (inactive) | 4.71 µM (inactive) | > 100 µM (inactive) | 77.3 µM (inactive) | 40.8 µM (inactive) | > 100 µM (inactive) | > 100 µM (inactive) | > 26.5 µM (inactive)
C=C(CN(C)C)C(=O)c1ccccc1OC | 13.9 µM (inactive) | 28.4 µM (inactive) | > 67.8 µM (inactive) | 2.51 µM (inactive) | 3.53 µM (inactive) | 15.6 µM (inactive) | > 52.8 µM (inactive) | 20.5 µM (inactive) | 24.4 µM (inactive) | 18.2 µM (inactive) | 20.7 µM (inactive) | 16 µM (inactive) | 21.6 µM (inactive) | 15.6 µM (inactive) | 20.2 µM (inactive) | 17.1 µM (inactive) | 44.4 µM (inactive) | 16.1 µM (inactive) | 24.5 µM (inactive) | 21 µM (inactive)
Cn1c(=S)c2nc(SCCCc3ccccc3)[nH]c2n(C)c1=O | 25.1 µM (inactive) | 18.4 µM (inactive) | 13.7 µM (inactive) | 6.59 µM (inactive) | 12.6 µM (inactive) | 21.8 µM (inactive) | 17.3 µM (inactive) | 22.8 µM (inactive) | 35.6 µM (inactive) | 21.8 µM (inactive) | 22.3 µM (inactive) | 20.9 µM (inactive) | 28.2 µM (inactive) | 27.9 µM (inactive) | 46.6 µM (inactive) | 6.67 µM (inactive) | 16.6 µM (inactive) | 17.4 µM (inactive) | 23.2 µM (inactive) | 26.2 µM (inactive)
O=[N+]([O-])c1ccc(-c2cn(-c3ccc(Cl)cc3)cn2)cc1 | 16.6 µM (inactive) | 40.7 µM (inactive) | 27.4 µM (inactive) | > 100 µM (inactive) | > 100 µM (inactive) | 27.4 µM (inactive) | 18.2 µM (inactive) | > 100 µM (inactive) | 41.6 µM (inactive) | > 100 µM (inactive) | 36.6 µM (inactive) | 19.1 µM (inactive) | 36.6 µM (inactive) | 3.8 µM (inactive) | > 100 µM (inactive) | 34.2 µM (inactive) | 67 µM (inactive) | 40.3 µM (inactive) | 31.8 µM (inactive) | 92 µM (inactive)
O=[N+]([O-])c1cc(F)ccc1S(=O)(=O)c1ccccc1 | > 10 µM (inactive) | > 10 µM (inactive) | > 10 µM (inactive) | > 10 µM (inactive) | > 10 µM (inactive) | > 10 µM (inactive) | > 10 µM (inactive) | > 10 µM (inactive) | > 10 µM (inactive) | > 10 µM (inactive) | > 10 µM (inactive) | > 10 µM (inactive) | > 10 µM (inactive) | > 10 µM (inactive) | > 10 µM (inactive) | > 10 µM (inactive) | > 10 µM (inactive) | > 10 µM (inactive) | > 10 µM (inactive) | > 10 µM (inactive)
CCOP(=O)(O)CN1CCNCCN(CP(=O)(O)OCC)CCNCC1 | > 100 µM (inactive) | > 100 µM (inactive) | > 100 µM (inactive) | > 100 µM (inactive) | 91.4 µM (inactive) | > 100 µM (inactive) | > 100 µM (inactive) | 61.9 µM (inactive) | > 100 µM (inactive) | > 100 µM (inactive) | > 100 µM (inactive) | > 100 µM (inactive) | > 100 µM (inactive) | > 100 µM (inactive) | > 100 µM (inactive) | > 100 µM (inactive) | > 100 µM (inactive) | > 100 µM (inactive) | > 100 µM (inactive) | > 100 µM (inactive)
CCCCCCCC1C(C)c2c([nH]c3ccccc23)C2C(=O)N(c3ccc(OC)cc3)C(=O)C21 (stereo not given) | 1.66 µM (inactive) | 2.67 µM (inactive) | 2.33 µM (inactive) | 2.61 µM (inactive) | 3.78 µM (inactive) | 1.79 µM (inactive) | 2.7 µM (inactive) | 2.63 µM (inactive) | > 5.89 µM (inactive) | 4.22 µM (inactive) | 1.7 µM (inactive) | 2.48 µM (inactive) | 2.52 µM (inactive) | 2.69 µM (inactive) | 5.48 µM (inactive) | > 6.22 µM (inactive) | 3.31 µM (inactive) | 2.38 µM (inactive) | 1.92 µM (inactive) | 4.24 µM (inactive)
COc1cc(/C=C2/SC(c3ccccc3)N(c3ccc(Cl)cc3)C2=O)cc(OC)c1OC (stereo not given) | > 100 µM (inactive) | > 80 µM (inactive) | > 41.5 µM (inactive) | 2.84 µM (inactive) | 1.3 µM (inactive) | 0.897 µM (active) | > 29.4 µM (inactive) | > 100 µM (inactive) | > 100 µM (inactive) | 2.37 µM (inactive) | 25.9 µM (inactive) | 80.5 µM (inactive) | > 100 µM (inactive) | > 100 µM (inactive) | > 56.6 µM (inactive) | 0.638 µM (active) | > 58.2 µM (inactive) | > 100 µM (inactive) | > 72.6 µM (inactive) | 2.02 µM (inactive)
CCOC(=O)C1C(=O)CC(O)(c2ccccc2)C(C(=O)OCC)C1c1ccc(N(C)C)cc1 (stereo not given) | 26.7 µM (inactive) | 31.6 µM (inactive) | 35.5 µM (inactive) | 17.3 µM (inactive) | 17.6 µM (inactive) | 23.8 µM (inactive) | 30.8 µM (inactive) | 15.8 µM (inactive) | 31.2 µM (inactive) | 6.44 µM (inactive) | 26.6 µM (inactive) | 24 µM (inactive) | 20 µM (inactive) | 18.1 µM (inactive) | 45.6 µM (inactive) | 22.3 µM (inactive) | 29.9 µM (inactive) | > 59.8 µM (inactive) | 24.7 µM (inactive) | 33.4 µM (inactive)
O=C1c2ccccc2C2CNC1(O)c1ccccc12 (stereo not given) | > 100 µM (inactive) | > 100 µM (inactive) | > 100 µM (inactive) | > 100 µM (inactive) | > 100 µM (inactive) | > 100 µM (inactive) | > 100 µM (inactive) | > 100 µM (inactive) | > 100 µM (inactive) | > 100 µM (inactive) | > 100 µM (inactive) | > 100 µM (inactive) | > 100 µM (inactive) | > 100 µM (inactive) | > 100 µM (inactive) | > 100 µM (inactive) | > 100 µM (inactive) | > 100 µM (inactive) | > 100 µM (inactive) | > 100 µM (inactive)
Nc1ccc2c(=O)cc(-c3cccs3)[nH]c2n1 | 3.45 µM (inactive) | > 37.8 µM (inactive) | 3.65 µM (inactive) | 2.21 µM (inactive) | 0.716 µM (active) | 1.25 µM (inactive) | 7.31 µM (inactive) | 3.66 µM (inactive) | 2.64 µM (inactive) | 0.223 µM (active) | 1.06 µM (active) | 3.32 µM (inactive) | 2.86 µM (inactive) | 1.48 µM (inactive) | 4.32 µM (inactive) | 1.03 µM (active) | 7.38 µM (inactive) | 7.13 µM (inactive) | 2.75 µM (inactive) | 2.3 µM (inactive)
Cc1ccccc1C(=O)N/N=C/c1ccc(Sc2nccn2C)c([N+](=O)[O-])c1 | > 100 µM (inactive) | > 100 µM (inactive) | > 100 µM (inactive) | 36.5 µM (inactive) | 56 µM (inactive) | 84.3 µM (inactive) | 80.2 µM (inactive) | 41.3 µM (inactive) | 35.6 µM (inactive) | 32.7 µM (inactive) | > 100 µM (inactive) | > 100 µM (inactive) | 72.1 µM (inactive) | > 100 µM (inactive) | > 100 µM (inactive) | 36.4 µM (inactive) | > 100 µM (inactive) | > 100 µM (inactive) | 85.1 µM (inactive) | 71.9 µM (inactive)
COc1cc2c(NCCCCCCO[N+](=O)[O-])ncnc2c(OC)c1OC | 26 µM (inactive) | 18.1 µM (inactive) | 28.7 µM (inactive) | 19.8 µM (inactive) | 21.4 µM (inactive) | 20.6 µM (inactive) | 26.6 µM (inactive) | 36.1 µM (inactive) | 23.1 µM (inactive) | 20.6 µM (inactive) | 21.7 µM (inactive) | 23.1 µM (inactive) | 23.9 µM (inactive) | 24.7 µM (inactive) | 45.1 µM (inactive) | 11.9 µM (inactive) | 66.5 µM (inactive) | 20.9 µM (inactive) | 35.2 µM (inactive) | 18.2 µM (inactive)
